Source: patent US7811778B2, “Methods of screening for gastrointestinal cancer” (Vanderbilt University, priority 2006, dated 2010)
Entries after “also recorded” stand apart in the source; their conditions may differ.

Test system: emerging SPEM cells at the bases of fundic glands
Test: Gene microarray analysis of laser-capture microdissected chief cells and emerging SPEM cells (Affymetrix Mouse 430 2.0)
Type: in vivo, gastrin-deficient mice
Experimental: See Nomura, S., Yamaguchi, H., Wang, T. C., Lee, J. R., and Goldenring, J. R. 2004. Alterations in gastric mucosal lineages induced by acute oxyntic atrophy in wild type and gastrin deficient mice. Amer. J. Physiol. 288:G362-G375. […] To examine this hypothesis more directly, chief cells were microdissected from the very bases of untreated gastrin knockout mice as well as SPEM cells at the base of fundic glands after 1 and 3 days of treatment with DMP-777. Total RNA was prepared from 10,000 cells isolated from 4 different mice in each group. For each of the 12 samples, linear amplification was performed and Affymetrix Mouse 2.0 gene microarrays were probed. […] Second, 30 genes were identified as being involved in G1-S interface transition, including 5 MCM proteins, BRCA1, RIS2, RAD51, TACC3 and ligase1. Immunocytochemistry was used to confirm the upregulation of MCM3 as well as TACC3 in SPEM cells located at the base of fundic glands in mice treated for 1 or 3 days with DMP-777. All of these changes are consistent with alterations moving towards a proliferative phenotype. […] See Nomura, S., Yamaguchi, H., Wang, T. C., Lee, J. R., and Goldenring, J. R. 2004. Alterations in gastric mucosal lineages induced by acute oxyntic atrophy in wild type and gastrin deficient mice. Amer. J. Physiol. 288:G362-G375. Thus the up-regulation of proteins involved in the G1/S interface is also consistent with transdifferentiation of chief cells into SPEM, since such changes would require a global transcriptome, alterations that would require unwinding of DNA and changes in gene activation including alteration in DNA methylation.
Gastrin-deficient mice were constructed by targeted disruption of the gastrin gene and were maintained on a C57BL/6 background (Nomura S, Yamaguchi H, Wang T C, Lee J R, Goldenring J R. Alterations in gastric mucosal lineages induced by acute oxyntic atrophy in wild type and gastrin deficient mice. Amer.J.Physiol. 2004; In Press). Mice were treated for 1 or 3 days with oral gavage administration of DMP-777 (a gift of DuPont Pharmaceuticals), formulated in 0.5% methylcellulose (administered orally as a gavage once daily at 350 mg/kg/day). Untreated mice were utilized as controls. Mice were sacrificed and their stomachs were excised and opened along the greater curvature and processed for frozen sections for laser capture microdissection. From the untreated Gastrin-deficient mice, chief cells were microdissected from the bases of gastric glands. The emerging SPEM cells were microdissected from the bases of fundic glands of DMP-777-treated Gastrin-deficient mice after 1 or 3 days of oral drug administration. Cell collections (10,000 cells) and extractions of total RNA were performed as previously described (Nomura S, Baxter S, Yamaguchi T, Leys C, Vartapetian A B, Fox J G, Lee J R, Wang T C, Goldenring J R. Relationship of spasmolytic polypeptide expressing metaplasia (SPEM) to pre-neoplasia in H. felis-infected mice. Gastroenterology 2004; 127:582-594).
Total RNA from microdissected cells were reverse transcribed and amplified through two rounds of linear amplification using a Nugen Ovation kit to amplify and label 10-20 ng of RNA. The resulting single-strand cDNA product was purified by binding to and elution from a Qiagen QIAQUICK® column. The cDNA product was then quantitated and 2.2 μg of the fragmented, labeled product was hybridized to Affymetrix Mouse 430 2.0 microarrays overnight, with staining and scanning performed the next day. Gene expression was analyzed among microdissected cells from 4 untreated gastrin-deficient mice 4 mice treated with DMP-777 for one day and 4 mice treated with DMP-777 for three days. The raw gene expression data (.cel files) were converted to expression values using the Affy function in R (see the Bioconductor website). […]

[1] = DMP-777-treated gastrin-deficient mice, microarray
[2] = gastrin knockout mice, 1 day of DMP-777, SPEM cells vs untreated chief cells, fold increases indicated as the exponential of 2
[3] = gastrin knockout mice, 3 days of DMP-777, SPEM cells vs untreated chief cells, fold increases indicated as the exponential of 2
[4] = gastrin-deficient mice, 350 mg/kg/day oral, 1 day, microdissected SPEM cells vs untreated chief cells
[5] = gastrin-deficient mice, 350 mg/kg/day oral, 1 day, microdissected SPEM cells vs untreated chief cells, first line for this gene
[6] = gastrin-deficient mice, 350 mg/kg/day oral, 1 day, microdissected SPEM cells vs untreated chief cells, second line for this gene
[7] = gastrin-deficient mice, 350 mg/kg/day oral, 3 days, microdissected SPEM cells vs untreated chief cells
[8] = gastrin-deficient mice, 350 mg/kg/day oral, 3 days, microdissected SPEM cells vs untreated chief cells, first line for this gene
[9] = gastrin-deficient mice, 350 mg/kg/day oral, 3 days, microdissected SPEM cells vs untreated chief cells, second line for this gene

## CCC[C@@H](NC(=O)N1C(=O)C(CC)(CC)[C@@H]1Oc1ccc(C(=O)N2CCN(C)CC2)cc1)c1ccc2c(c1)OCO2 [DMP-777]
1 and 3 days of DMP-777-treatment
  pro-apoptotic genes in the cohort of up-regulated gene transcripts: there were not any pro-apoptotic genes detected; also recorded: No pro-apoptotic genes were detected
DMP-777 1 and 3 days, at least 2 fold change
  number of up-regulated genes involved in G1-S interface transition: 30
[1]
  number of the top 50 probes for up-regulated transcripts that detect regulators of the G1/S transition: 34
  transcripts for lipase, a chief cell product: significant decrease
[2]
  BRRN1, Day 1 Fold increase, Relative to Control: 2.2 Fold
  CRIP1, Day 1 Fold increase, Relative to Control: 3.2 Fold
  EREG, Day 1 Fold increase, Relative to Control: 1.8 Fold
  EXOSC8, Day 1 Fold increase, Relative to Control: 2.6 Fold
  EXPI, Day 1 Fold increase, Relative to Control: 2.4 Fold
  FIGNL1, Day 1 Fold increase, Relative to Control: 3.3 Fold
  IL1RN, Day 1 Fold increase, Relative to Control: 4.7 Fold
  LGALS3, Day 1 Fold increase, Relative to Control: 5.5 Fold
  NELF, Day 1 Fold increase, Relative to Control: 2.1 Fold
  S100A4, Day 1 Fold increase, Relative to Control: 2.8 Fold
  TMEM40, Day 1 Fold increase, Relative to Control: 1.4 Fold
  TMEM109, Day 1 Fold increase, Relative to Control: 2.5 Fold
  TR1P13, Day 1 Fold increase, Relative to Control: 3.5 Fold
[3]
  BRRN1, Day 3 Fold Increase, Relative to Control: 3.1 Fold
  CRIP1, Day 3 Fold Increase, Relative to Control: 5.4 Fold
  EREG, Day 3 Fold Increase, Relative to Control: 4.8 Fold
  EXOSC8, Day 3 Fold Increase, Relative to Control: 2.8 Fold
  EXPI, Day 3 Fold Increase, Relative to Control: 8.4 Fold
  FIGNL1, Day 3 Fold Increase, Relative to Control: 2.7 Fold
  IL1RN, Day 3 Fold Increase, Relative to Control: 4.2 Fold
  LGALS3, Day 3 Fold Increase, Relative to Control: 7.3 Fold
  NELF, Day 3 Fold Increase, Relative to Control: 3.7 Fold
  S100A4, Day 3 Fold Increase, Relative to Control: 2.5 Fold
  TMEM40, Day 3 Fold Increase, Relative to Control: 6.9 Fold
  TMEM109, Day 3 Fold Increase, Relative to Control: 3.6 Fold
  TR1P13, Day 3 Fold Increase, Relative to Control: 3.0 Fold
[4]
  5ssca1 transcript, 1 DAY DMP-777 vs CONTROL: 8.9
  Atf3 transcript, 1 DAY DMP-777 vs CONTROL: 311.4
  Cdc2a transcript, 1 DAY DMP-777 vs CONTROL: 11.7
  Cdca1 transcript, 1 DAY DMP-777 vs CONTROL: 9.2
  Cdca5 transcript, 1 DAY DMP-777 vs CONTROL: 17.3
  CdcaS transcript, 1 DAY DMP-777 vs CONTROL: 7.3
  Cenph transcript, 1 DAY DMP-777 vs CONTROL: 25.7
  Clspn transcript, 1 DAY DMP-777 vs CONTROL: 9.5
  Crip1 transcript, 1 DAY DMP-777 vs CONTROL: 9.5
  Dcc1 transcript, 1 DAY DMP-777 vs CONTROL: 8.8
  Ereg transcript, 1 DAY DMP-777 vs CONTROL: 3.6
  ExoscB transcript, 1 DAY DMP-777 vs CONTROL: 6.2
  Fignl1 transcript, 1 DAY DMP-777 vs CONTROL: 10.2
  Gadd45b transcript, 1 DAY DMP-777 vs CONTROL: 8.6
  Il1m transcript, 1 DAY DMP-777 vs CONTROL: 25.4
  Lgals3 transcript, 1 DAY DMP-777 vs CONTROL: 46.8
  Lig1 transcript, 1 DAY DMP-777 vs CONTROL: 9.3
  Mcm6 transcript, 1 DAY DMP-777 vs CONTROL: 25.1
  Ncapg transcript, 1 DAY DMP-777 vs CONTROL: 7.5
  Pole transcript, 1 DAY DMP-777 vs CONTROL: 7.5
  Rad51 transcript, 1 DAY DMP-777 vs CONTROL: 13.5
  Rad54b transcript, 1 DAY DMP-777 vs CONTROL: 6.7
  Rfc3 transcript, 1 DAY DMP-777 vs CONTROL: 8.1
  Rfc4 transcript, 1 DAY DMP-777 vs CONTROL: 8.5
  Rrm1 transcript, 1 DAY DMP-777 vs CONTROL: 8.4
  Tk1 transcript, 1 DAY DMP-777 vs CONTROL: 10.1
  Top2a transcript, 1 DAY DMP-777 vs CONTROL: 7.3
  Trip13 transcript, 1 DAY DMP-777 vs CONTROL: 10.3
  Uhrf1 transcript, 1 DAY DMP-777 vs CONTROL: 35.3
  WDNM1 transcript, 1 DAY DMP-777 vs CONTROL: 5.2
  Wfdc2 transcript, 1 DAY DMP-777 vs CONTROL: 8.9
[5]
  Mcm5 * transcript, 1 DAY DMP-777 vs CONTROL: 18.1
  Mcm10 * transcript, 1 DAY DMP-777 vs CONTROL: 12.2
  Prc1 transcript, 1 DAY DMP-777 vs CONTROL: 7.5
  Rad51ap1 * transcript, 1 DAY DMP-777 vs CONTROL: 12.9
  Ris2* transcript, 1 DAY DMP-777 vs CONTROL: 21.5
[6]
  Mcm5 * transcript, 1 DAY DMP-777 vs CONTROL: 13.9
  Mcm10 * transcript, 1 DAY DMP-777 vs CONTROL: 6.7
  Prc1 transcript, 1 DAY DMP-777 vs CONTROL: 7.0
  Rad51ap1 * transcript, 1 DAY DMP-777 vs CONTROL: 8.7
  Ris2* transcript, 1 DAY DMP-777 vs CONTROL: 7.3
[7]
  5ssca1 transcript, 3 DAYS DMP-777 vs CONTROL: 12.3
  Atf3 transcript, 3 DAYS DMP-777 vs CONTROL: 10.1
  Cdc2a transcript, 3 DAYS DMP-777 vs CONTROL: 7.0
  Cdca1 transcript, 3 DAYS DMP-777 vs CONTROL: 8.1
  Cdca5 transcript, 3 DAYS DMP-777 vs CONTROL: 36.1
  CdcaS transcript, 3 DAYS DMP-777 vs CONTROL: 8.7
  Cenph transcript, 3 DAYS DMP-777 vs CONTROL: 10.7
  Clspn transcript, 3 DAYS DMP-777 vs CONTROL: 8.5
  Crip1 transcript, 3 DAYS DMP-777 vs CONTROL: 42.6
  Dcc1 transcript, 3 DAYS DMP-777 vs CONTROL: 10.0
  Ereg transcript, 3 DAYS DMP-777 vs CONTROL: 28.9
  ExoscB transcript, 3 DAYS DMP-777 vs CONTROL: 6.7
  Fignl1 transcript, 3 DAYS DMP-777 vs CONTROL: 6.6
  Gadd45b transcript, 3 DAYS DMP-777 vs CONTROL: 5.0
  Il1m transcript, 3 DAYS DMP-777 vs CONTROL: 18.5
  Lgals3 transcript, 3 DAYS DMP-777 vs CONTROL: 153.3
  Lig1 transcript, 3 DAYS DMP-777 vs CONTROL: 9.6
  Mcm6 transcript, 3 DAYS DMP-777 vs CONTROL: 36.4
  Ncapg transcript, 3 DAYS DMP-777 vs CONTROL: 3.2
  Pole transcript, 3 DAYS DMP-777 vs CONTROL: 11.3
  Rad51 transcript, 3 DAYS DMP-777 vs CONTROL: 10.5
  Rad54b transcript, 3 DAYS DMP-777 vs CONTROL: 6.6
  Rfc3 transcript, 3 DAYS DMP-777 vs CONTROL: 6.1
  Rfc4 transcript, 3 DAYS DMP-777 vs CONTROL: 8.4
  Rrm1 transcript, 3 DAYS DMP-777 vs CONTROL: 8.4
  Tk1 transcript, 3 DAYS DMP-777 vs CONTROL: 11.5
  Top2a transcript, 3 DAYS DMP-777 vs CONTROL: 6.4
  Trip13 transcript, 3 DAYS DMP-777 vs CONTROL: 8.6
  Uhrf1 transcript, 3 DAYS DMP-777 vs CONTROL: 8.8
  WDNM1 transcript, 3 DAYS DMP-777 vs CONTROL: 345.9
  Wfdc2 transcript, 3 DAYS DMP-777 vs CONTROL: 67.5
[8]
  Mcm5 * transcript, 3 DAYS DMP-777 vs CONTROL: 36.2
  Mcm10 * transcript, 3 DAYS DMP-777 vs CONTROL: 38.3
  Prc1 transcript, 3 DAYS DMP-777 vs CONTROL: 6.9
  Rad51ap1 * transcript, 3 DAYS DMP-777 vs CONTROL: 6.1
  Ris2* transcript, 3 DAYS DMP-777 vs CONTROL: 41.3
[9]
  Mcm5 * transcript, 3 DAYS DMP-777 vs CONTROL: 18.2
  Mcm10 * transcript, 3 DAYS DMP-777 vs CONTROL: 10.1
  Prc1 transcript, 3 DAYS DMP-777 vs CONTROL: 7.4
  Rad51ap1 * transcript, 3 DAYS DMP-777 vs CONTROL: 7.4
  Ris2* transcript, 3 DAYS DMP-777 vs CONTROL: 10.3
Gene microarray, DMP-777-treated gastrin knockout mice vs untreated
  increase in the expression of the HE4 gene: greater than 16 fold
